Data published in patent publication US20070286823A1, “COMPOSITIONS HAVING ANTI-DENTAL CARIES FUNCTION” (Ezaki Glico Co., Ltd., priority 2001, published 2007).

What was measured:
[1] = remineralization test system using bovine tooth pieces (Example 3)
Description: The remineralization effect of a buffering agent may be examined by a known method, such as a remineralization test system using bovine tooth sections which is described in Inaba. D et al., Eur. J. Sci. 105:74-80, 1997; Inaba. D et al., J. Dent. Health. 47:67-74, 1997; and Iijima. Y et al., Dental Caries Research. 33:206-213, 1999.
This experiment was conducted basically in accordance with Inaba. D et al., Eur. J. Sci. 105:74-80, 1997; Inaba. D et al., J. Dent. Helth. 47:67-74, 1997; and Iijima. Y et al., Caries Research. 33:206-213, 1999.
Tooth pieces used in the experiment were prepared as follows: cubic bovine tooth pieces 3 mm per side were placed so that the enamel surfaces thereof are up. The pieces were covered with composite resin except for the enamel surfaces. The enamel was treated with wet abrasives and paper. Demineralization was conducted as follows: the tooth pieces were immersed in 1% lactate gel (pH 5.0) containing 6% carboxymethylcellulose gel at 37° C. for 3 weeks. Remineralization was conducted as follows: the tooth pieces subjected to demineralization were immersed in 20 mM 2-[4-(2-hydroxyethyl)]-1-piperidinylethane sulfonate (HEPES) buffer (pH 7.0) containing 1.5 mM CaCl2 and 0.9 mM KH2PO4 at 37° C. for one week.
After each treatment, a 200 μm-thick section was prepared from each treated tooth piece, and the mineral concentration distribution thereof was analyzed from the microradiographic images (not shown). […]
After each treatment, the calcium and phosphorus concentrations of the post-remineralization solution were also analyzed. The solution was centrifuged at 10,000 g for two minutes, and the supernatant was analyzed. The phosphorus concentration was determined by molybdic acid method (“Shin-ban Bunseki Kagaku Jikken [New Edition Analyical Chemistry Experiment] (1st ed.), pp. 313-314, published by Kagaku Dojin K. K.), and the calcium concentration was determined by OCPC method (manufactured by Wako Pure Chemicals: measured by a “calcium C test Wako” kit).

[2] = prior art; cited from earlier work
[3] = simple remineralization test system (hydroxyapatite, soluble calcium by OCPC method); conditions: for remineralization effect (FIG. 12): final concentration of 0.1%
Excerpt: These conditions for easy remineralization are simplified as follows: in a system including hydroxyapatite, calcium and phosphorus are supplied for crystallization and soluble calcium is reduced; and in a system including no hydroxyapatite, phosphorus and calcium are not deposited and the high solubility thereof is maintained. Therefore, the magnitudes of the solubility of calcium in the two systems were compared to examine the remineralization effect. These simple test systems will be described below. […] For this method, there are the following constraints: a long time required for evaluation; a high-level experimental technique required; etc. Therefore, there is a demand for a simple evaluation system capable of quickly capturing changes in dentin mineral concentrations. Remineralization in an early dental caries lesion in the enamel of teeth is considered to develop via the following two processes:
This method comprises the steps of: (A) precipitating calcium in a solution containing phosphorus, calcium, and tooth components in the presence of the sample; (B) measuring a calcium concentration in the solution or the amount of the precipitated calcium after the precipitation; (C) precipitating calcium in the solution in the absence of the sample; (D) measuring a calcium concentration in the solution or the amount of the precipitated calcium after the precipitation; and (E) comparing calcium concentrations or the amounts of the precipitated calcium in steps (B) and (D). In a preferred embodiment, the above-described solution may contain hydroxyapatite, a buffer, KH2PO4 and CaCl2. The “tooth component” to be contained in the above-described solution is any material that precipitates phosphorus and calcium to produce hydroxyapatite due to remineralization. Use of hydroxyapatite is preferable. Alternatively, teeth of mammals such as a bovine, and sections or fractions thereof may be used. When the solution for calcium precipitation is prepared, the sequence of addition of the above-described phosphorus, calcium, and the other tooth components is not limited. Preferably, first the sample, then, phosphorus, calcium chloride solution, and the tooth component suspension or deionized water are added in this order to prepare the solution. The pH of the solution is preferably adjusted after the addition of KH2PO4. Calcium precipitation typically occurs by incubation at room temperature for ten and several hours to several days (preferably 10 hours to 7 days, more preferably 18 hours to 42 hours). The calcium solubility of the solution can be measured by any procedure known to those skilled in the art. The calcium solubility of the solution may be measured by OCPC method (using calcium C test Wako manufactured by Wako Pure Chemicals). Alternatively, the amount of precipitated calcium in the solution can be measured. The amount of precipitated calcium in the solution may be measured by any procedure known to those skilled in the art. The calcium solubility of the solution may be measured by any procedure known to those skilled in the art. Examples of such a method include the ICP method (Inductive Coupled Plasma method), atomic absorption analysis and an ion electrode method.
In order to examine the remineralization phenomenon in a more simple manner, conditions under which remineralization occurs more easily were simplified. In a system including hydroxyapatite, calcium and phosphorus are supplied for crystallization and soluble calcium is reduced. In contrast, in a system including no hydroxyapatite, calcium and phosphorus are not precipitated so that the solubility thereof is held at a high level. Based on these facts, the following test system was designed.

[4] = as above; conditions: 37° C., 8 days
S. mutans strain 8148 = test: effect on fermentation of sucrose (pH of bacterial cell suspension); assay type: cell-based; conditions: 0.684% sugar added to 20% bacterial cell suspension; after 10 minutes
Description: S. mutans strain 8148 was incubated in 1,000 ml of brain heart infusion medium (manufactured by DIFCO Corporation) at 37° C. for 14 hours. Thereafter, the bacteria were collected by centrifugation at 6,000 rpm for 20 minutes. The bacteria was washed with phosphate buffered saline (PBS, pH 7.2), and suspended in the same PBS to 40% (v/v). To measure the pH, a reaction mixture (250 μl) was made of 125 μl of 40% bacterial cell suspension, 62.5 μl of 80 mM sucrose, and 62.5 μl of an aqueous solution containing various oligosaccharides (5% phosphorylated oligosaccharide sodium salt and phosphorylated oligosaccharide calcium salt). The pH of the reaction mixture was continuously measured with a pH meter (manufactured by Toa Denpa) while being incubated at 37° C.

[5] = remineralization solution + 2 ppm F, supernatant

F [F, fluorine]
lesion depth (FIG. 2) ([1]; demineralized bovine tooth pieces, remineralization solution + sample, 37° C., one week): the lesion depth was unchanged | Ca (mM) of the post-remineralization solution [1, 5]: 0.73 mM | Pi (mM) of the post-remineralization solution [1, 5]: 0.41 mM | concentration at which sufficient efficacy is exerted (remineralization) [2]: about 2 ppm

O=C[C@H](O)[C@@H](O)[C@H](O)[C@H](O)COP(=O)(O)O [glucose-6-phosphate]
remineralization effect (FIG. 12) [3]: as good as or better than that of the phosphorylated oligosaccharide sodium salt

OC[C@H]1O[C@H](OC[C@H]2OC(O)(CO)[C@@H](O)[C@@H]2O)[C@H](O)[C@@H](O)[C@@H]1O (stereo partly drawn) [palatinose, 6-O-α-D-Glucopyranosyl-D-Fructofuranose]
remineralization effect (FIG. 13) ([3]; 20% addition group): the remineralization effect as previously reported (as above) was confirmed | sample concentration exhibiting a remineralization effect (FIGS. 7A to 7C) [4]: 20%

OC[C@@H](O)[C@@H](O)[C@H](O)[C@@H](O)CO [sorbitol]
remineralization effect (FIG. 13) ([3]; 20% addition group): the remineralization effect as previously reported (as above) was confirmed

OC[C@H]1O[C@@](CO)(O[C@H]2O[C@H](CO)[C@@H](O)[C@H](O)[C@H]2O)[C@@H](O)[C@@H]1O [sucrose]
pH of the reaction liquid (S. mutans strain 8148): 4.0

OC[C@@H](O)[C@H](O)[C@@H](O)CO [xylitol]
remineralization effect (FIG. 13) ([3]; 20% addition group): the remineralization effect as previously reported (as above) was confirmed | effect of xylitol (remineralization) ([3]; statement in the background referring to the Examples): not substantially confirmed | sample concentration exhibiting a remineralization effect (FIGS. 7A to 7C) [4]: 20%

O=C[C@H](O)[C@@H](O)[C@H](O)CO [xylose]
remineralization percentage (FIG. 7B) ([3]; 37° C., 8 days): low at any concentration

chondroitin sulfate C [chondroitin sulfate C sodium salt]
remineralization effect (FIG. 12) [3]: as good as or better than that of the phosphorylated oligosaccharide sodium salt

dermatan sulfate
remineralization effect (FIG. 13) ([3]; final concentration of 0.2%): confirmed to have the remineralization effect

palatinit
sample concentration exhibiting a remineralization effect (FIGS. 7A to 7C) [4]: 20%
